Laboratory results as given in the NIST ThermoML archive (doi:10.1021/je900732r).

Assay: mn = molality of the nth substance listed, in mol/kg
Conditions: 101 kPa, Liquid; for speed of sound: Pulse-echo method

[Ni+2].[O-][Cl+3]([O-])([O-])[O-].[O-][Cl+3]([O-])([O-])[O-] [nickel perchlorate] + CO
Conditions | mass density, 283.15 K [kg/m3] | mass density, 288.15 K [kg/m3] | mass density, 293.15 K [kg/m3] | mass density, 298.15 K [kg/m3] | mass density, 303.15 K [kg/m3] | mass density, 308.15 K [kg/m3] | mass density, 313.15 K [kg/m3] | speed of sound, 298.15 K [m/s]
m1 = 0.04976 | 810.894 | 806.238 | 801.564 | 796.875 | 792.174 | 787.453 | 782.702 | 1108.7
m1 = 0.06138 | 813.322 | 808.669 | 804 | 799.318 | 794.619 | 789.897 | 785.142 | 1110.3
m1 = 0.07317 | 815.812 | 811.165 | 806.497 | 801.821 | 797.126 | 792.41 | 787.658 | 1111.9
m1 = 0.08448 | 818.152 | 813.508 | 808.845 | 804.169 | 799.474 | 794.767 | 790.033 | 1113.4
m1 = 0.09669 | 820.699 | 816.056 | 811.401 | 806.731 | 802.044 | 797.34 | 792.608 | 1115.2
m1 = 0.1085 | 823.23 | 818.592 | 813.937 | 809.271 | 804.589 | 799.878 | 795.147 | 1116.7
m1 = 0.1208 | 825.801 | 821.168 | 816.518 | 811.856 | 807.179 | 802.481 | 797.759 | 1118.3
m1 = 0.1447 | 830.859 | 826.231 | 821.586 | 816.93 | 812.261 | 807.568 | 802.853 | 1121.7
m1 = 0.1676 | 835.774 | 831.151 | 826.515 | 821.865 | 817.198 | 812.514 | 807.813 | 1124.8
m1 = 0.1901 | 840.657 | 836.042 | 831.412 | 826.771 | 822.114 | 817.44 | 812.739 | 1127.8
m1 = 0.2123 | 845.469 | 840.858 | 836.233 | 831.599 | 826.95 | 822.28 | 817.588 | 1130.6
m1 = 0.2356 | 850.636 | 846.033 | 841.413 | 836.783 | 832.14 | 827.476 | 822.785 | 1134.2
